Source: US20150166476A1, “METHODS FOR TREATING NEURODEGENERATIVE DISEASES ASSOCIATED WITH AGGREGATION OF AMYLOID-BETA” (priority 2013, published 2015)
Entries after “also recorded” stand apart in the source; their conditions may differ.

How the values were obtained:
[1] = biological target: T1, Aβ1-40 (Homo sapiens, UniProt P05067); assay: Peptide aggregation assay (Thioflavin-T fluorescence); format: biochemical; settings: 25 μM Aβ1-40, 100 ng/mL compound, 37° C., day 5 (FIG. 1)
T1 construct: Aβ1-40 peptide was synthesized in a solid-phase synthesizer; made in house; host or cells: chemical solid-phase peptide synthesis (no expression host)
T1 sequence (P05067 672-711 limits assumed): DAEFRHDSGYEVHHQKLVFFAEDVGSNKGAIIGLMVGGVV
Experimental: Thioflavin-T (ThT) was used to monitor the aggregation state of Aβ1-40. 25 μM of Aβ1-40 was freshly diluted from the peptide stock solution in phosphate buffer (pH 7.4), for peptide aggregation assay. All samples containing a peptide concentration of 25 μM in the absence or presence of 100 ng/mL the compound of formula (I) and 3 μM ThT were incubated at 37° C. Samples containing either Aβ peptide only (control), or Aβ with the compound of formula (I), taking daily from day 0 to day 7, were used to measure the ThT sensitivity. The fluorescence measurement was performed on a microplate reader (FlexSTation 3, MD), with excitation and emission wavelength respectively set at 440 nm and 485 nm.
In this example, the effects of the compound of formula (I) on the aggregation of Aβ1-40 were investigated using the Th-T fluorescence assay described above in the Material and Methods section. Results are depicted in FIG. 1.

[2] = biological target: T1, Aβ1-40; assay: FT-IR spectroscopy of the secondary structure of Aβ1-40; format: biochemical; settings: day 1 and day 5 (FIG. 2)
Experimental: The secondary structure of Aβ1-40 with or without the compound of formula (I) was investigated using FT-IR spectrometer (Jasco, FT-IR/4100) equipped with an attenuated reflection accessory to determine the conformation of Aβ1-40 during the aggregative process. 100 μL of 0.1 mM Aβ solution was coated on ZnSe crystals and dried overnight in a desiccators at room temperature. The spectra were recorded at 1,500 to 1,800 cm^−1 with a 1 cm^−1 interval. The peak was identified from the first derivation of the IR spectrum in the amide I region, and the secondary structure was analyzed using Original 6.0 software.
It is known that during the aggregation process, the conformation of Aβ1-40 is converted to either […]. […] Results are depicted in FIG. 2.

[3] = tested on: SH-SY5Y cells; assay: Cell viability assay (WST-1), Aβ1-40 induced cell death; format: cell-based, Human; settings: for effect on Aβ1-40 induced cell death (cell viability): 25 μM Aβ1-40, 24 hr, compound at concentration below 100 ng/mL (FIG. 3)
Experimental: Human […] SH-SY5Y cells were cultured in minimum essential medium supplemented with 10% (v/v) heat-inactivated fetal bovine serum, 50% (v/v) F-12 nutrient mixture, and 1% (v/v) antibiotic mixture comprised of penicillin and streptomycin. Cells were kept at 37° C. in a humidified atmosphere of 5% CO2. SH-SY5Y cells were plated at a density of 1×10^5 viable cells per well in 96-well plates for future analysis.
The cell viability was determined by the WST-1 assay. […] of Aβ1-40 peptide stock solution were prepared by dissolving 1 mg Aβ1-40 in 1 mL trifluoroethanol and centrifuging to remove any insoluble particles. The peptide solution was then dried under nitrogen gas and re-dissolved in dimethyl sulfoxide, and incubated at 4° C. for 12 hr to provide the final peptide stock solution. For the viability assay, cells (1×10^5 cells/well in a 96-well microtiter plate) were treated with either 25 μM Aβ peptides only (as a positive control), or with the combination of 25 μM Aβ peptides and the compound of formula (I), in a concentration ranged from 1 to 1,000 ng/mL. The reaction was performed in a total volume of 200 μL per well for 24 hr at 37° C. in a humidified atmosphere containing 5% CO2 before cell viability was assayed. The WST-1 solution (10 μL) was added to each well, and the wells were incubated for another 4-5 hr at room temperature. The optical density was measured at 405 nm using a microplate reader.
In this example, the effects of compounds of formula (I) on Aβ1-40 induced cell toxicity were investigated by cell viability assay.

[4] = biological target: T1, Aβ1-40; assay: Free radical assay (DCFH-DA), cell free; format: biochemical; settings: 25 μM Aβ1-40, versus Aβ1-40 alone (FIG. 4)
Experimental: The level of free radicals (H2O2) induced by Aβ1-40 peptide in cell free conditions was analyzed using the dichlorofluorescein diacetate (DCFH-DA) assay. DCF-DA was deacetylated with 50% (v/v) 0.05 M NaOH for 30 min and neutralized (pH 7.5) to a final concentration of 200 μM as a stock solution. This stock solution was kept on ice in the dark until future use. The reactions were carried out in a 96-well plate (200 μL/well) containing 25 μM of Aβ1-40 diluted from the stock solution, 20 μM deacetylated DCF, 5 μM horseradish peroxidase, in Dulbecco's phosphate-buffered saline, pH 7.5. To determine the inhibitory effects of the compound of formula (I) on free radical formation, various concentrations of the compound of formula (I) were added and incubated at 37° C. Fluoresence readings were recorded on a microplate reader (FlexSTation 3, MD) with the excitation wavelength of 485 nm and the emission wavelength of 530 nm. The fluorescence intensity of DCF (H2O2 level) was measured every 6 hr and from 0 to 72 hr.

| SMILES | effect on the aggregation of Aβ1-40 (Th-T fluorescence intensity) [1] | conformation of Aβ1-40 (FT-IR, 1650 cm^−1 random coil vs 1625 cm^−1 β-sheet) [2] | effect on Aβ1-40 induced cell death (cell viability) [3] | Aβ1-40 induced free radical levels (DCF fluorescence intensity) [4] | cell survival rate ([3]; 25 μM Aβ1-40, 1 ng/mL compound) | cell survival rate ([3]; 25 μM Aβ1-40, 100 ng/mL compound) | cell survival rate ([3]; 25 μM Aβ1-40, 1,000 ng/mL compound) |
| --- | --- | --- | --- | --- | --- | --- | --- |
| CC1=C(SCCO)C(=O)c2ccccc2C1=O [VK3-1] | capable of enhancing the aggregation of Aβ1-40 | converted to β-sheet structure | smaller effects | resulted even more free radicals as compared with the control |  |  |  |
| CC1=C(SCCCO)C(=O)c2ccccc2C1=O [VK3-2] | capable of preventing Aβ1-40 from aggregation | remained mostly in random coil conformation | smaller effects | resulted even more free radicals as compared with the control |  |  |  |
| CC1=C(SCCCCO)C(=O)c2ccccc2C1=O [VK3-3] |  | converted to β-sheet structure | smaller effects | resulted even more free radicals as compared with the control |  |  |  |
| CC1=C(SCCCCCCO)C(=O)c2ccccc2C1=O [VK3-4] | capable of enhancing the aggregation of Aβ1-40 |  | smaller effects |  |  |  |  |
| CC1=C(SCCCCCCCCCCCO)C(=O)c2ccccc2C1=O [VK3-5] | capable of enhancing the aggregation of Aβ1-40 | converted to β-sheet structure | smaller effects | effectively inhibited |  |  |  |
| CC1=C(SCCC(=O)O)C(=O)c2ccccc2C1=O [VK3-6] | capable of preventing Aβ1-40 from aggregation; also recorded: most potent | remained mostly in random coil conformation |  |  |  |  |  |
| CC1=C(SCC(C)O)C(=O)c2ccccc2C1=O (centres unmarked) [VK3-8] | capable of preventing Aβ1-40 from aggregation | remained mostly in random coil conformation | smaller effects | resulted even more free radicals as compared with the control |  |  |  |
| CC1=C(SCC(O)CO)C(=O)c2ccccc2C1=O (centres unmarked) [VK3-9] | capable of preventing Aβ1-40 from aggregation; also recorded: most potent | remained mostly in random coil conformation | exhibited the ability of preventing Aβ1-40 induced cell death | effectively inhibited | 50% | 88% | 92% |
| O=C1C=C(SCCO)C(=O)c2ccccc21 [VK3-199] | capable of preventing Aβ1-40 from aggregation | remained mostly in random coil conformation | smaller effects | resulted even more free radicals as compared with the control |  |  |  |
| CC1=C(O)C(=O)c2ccccc2C1=O [VK3-221] | capable of preventing Aβ1-40 from aggregation | remained mostly in random coil conformation | smaller effects |  |  |  |  |
| CC1=C(NCCN2CCOCC2)C(=O)c2ccccc2C1=O [VK3-224] | capable of preventing Aβ1-40 from aggregation | remained mostly in random coil conformation | no difference from that of the control |  |  |  |  |
| O=C1C(SCCO)=C(SCCO)C(=O)c2ccccc21 [VK3-231] |  |  | smaller effects | resulted even more free radicals as compared with the control |  |  |  |
| O=C1C(SCC(O)CO)=C(SCC(O)CO)C(=O)c2ccccc21 (centres unmarked) [VK3-232] |  |  | no difference from that of the control |  |  |  |  |
| O=C1C(SCCCCCCO)=C(SCCCCCCO)C(=O)c2ccccc21 [VK3-233-2d] | capable of enhancing the aggregation of Aβ1-40 | converted to β-sheet structure | no difference from that of the control | resulted even more free radicals as compared with the control |  |  |  |
